US5770617A, “Terbenzimidazoles useful as antifungal agents” (Rutgers, The State University of New Jersey, priority 1997, dated 1998)
Entries after “also recorded” stand apart in the source; their conditions may differ.

Target: T1, human topoisomerase I (Homo sapiens, UniProt P11387)
T1 construct: made in house; host or cells: Escherichia coli BL21 (DE3) harboring PET1B
T1 sequence (P11387 1-765): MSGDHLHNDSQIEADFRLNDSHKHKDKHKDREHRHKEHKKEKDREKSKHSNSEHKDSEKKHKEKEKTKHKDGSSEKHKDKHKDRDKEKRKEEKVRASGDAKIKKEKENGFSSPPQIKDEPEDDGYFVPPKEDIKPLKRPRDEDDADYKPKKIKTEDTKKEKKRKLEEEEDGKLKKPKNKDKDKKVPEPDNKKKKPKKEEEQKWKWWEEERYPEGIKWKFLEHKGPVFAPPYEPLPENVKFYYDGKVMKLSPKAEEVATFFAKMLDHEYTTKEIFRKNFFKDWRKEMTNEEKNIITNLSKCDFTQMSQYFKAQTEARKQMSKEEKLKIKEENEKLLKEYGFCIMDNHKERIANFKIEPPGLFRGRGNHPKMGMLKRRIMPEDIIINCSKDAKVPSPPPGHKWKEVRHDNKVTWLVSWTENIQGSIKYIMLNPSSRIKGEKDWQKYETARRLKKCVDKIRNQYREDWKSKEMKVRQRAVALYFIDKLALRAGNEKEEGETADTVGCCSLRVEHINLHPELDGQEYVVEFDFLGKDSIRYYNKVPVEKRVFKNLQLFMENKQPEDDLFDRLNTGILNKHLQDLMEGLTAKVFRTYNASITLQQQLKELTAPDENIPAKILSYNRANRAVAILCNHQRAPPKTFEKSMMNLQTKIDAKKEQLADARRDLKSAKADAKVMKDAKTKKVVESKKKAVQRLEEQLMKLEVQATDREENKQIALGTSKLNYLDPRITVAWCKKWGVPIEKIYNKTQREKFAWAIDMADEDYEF
Assay: not given
Conditions: cited from earlier work

Row | Compound | inhibition of human topoisomerase I, in words (known / previously disclosed)
1 | N=C(N)c1ccc(N=NNc2ccc(C(=N)N)cc2)cc1 [Berenil, berenil] | inactive
2 | COc1cc2cc3c4cc(OC)c(OC)cc4cc[n+]3c(C)c2cc1OC [coralyne] | highly potent inhibitors

Target: T2, calf thymus topoisomerase I (Bos taurus, UniProt F1MN93)
T2 construct: DNA topoisomerase I was purified from calf thymus gland as reported previously; from tissue; host or cells: calf thymus gland
T2 sequence (F1MN93 1-767): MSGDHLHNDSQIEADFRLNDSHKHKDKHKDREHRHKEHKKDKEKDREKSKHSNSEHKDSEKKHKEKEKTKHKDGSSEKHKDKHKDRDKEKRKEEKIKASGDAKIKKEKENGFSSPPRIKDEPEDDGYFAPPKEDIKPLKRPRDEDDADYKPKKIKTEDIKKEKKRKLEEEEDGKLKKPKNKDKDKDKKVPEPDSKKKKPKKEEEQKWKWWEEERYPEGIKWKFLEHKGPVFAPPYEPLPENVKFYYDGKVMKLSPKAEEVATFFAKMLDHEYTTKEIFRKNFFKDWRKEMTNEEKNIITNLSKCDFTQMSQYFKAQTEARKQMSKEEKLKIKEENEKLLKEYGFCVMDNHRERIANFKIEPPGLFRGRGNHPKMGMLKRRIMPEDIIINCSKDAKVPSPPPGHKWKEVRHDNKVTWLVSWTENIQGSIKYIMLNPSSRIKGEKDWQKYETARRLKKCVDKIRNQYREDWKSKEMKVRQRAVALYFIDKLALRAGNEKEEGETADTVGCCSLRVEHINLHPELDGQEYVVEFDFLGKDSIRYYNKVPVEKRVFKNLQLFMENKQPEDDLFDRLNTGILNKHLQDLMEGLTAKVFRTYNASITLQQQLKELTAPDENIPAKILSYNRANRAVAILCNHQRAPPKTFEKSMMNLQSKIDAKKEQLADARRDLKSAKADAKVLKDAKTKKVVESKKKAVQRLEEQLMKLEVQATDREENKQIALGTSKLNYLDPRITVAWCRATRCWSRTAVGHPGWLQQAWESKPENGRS
Assay: Topoisomerase I-mediated DNA cleavage assay (calf thymus enzyme)
Type: biochemical
Conditions: concentration relative to Hoechst 33342 (arbitrarily 1) producing the same cleavage on plasmid DNA; calf thymus topoisomerase I
Text: A. Topoisomerase I-Mediated DNA Cleavage Assays
DNA topoisomerase I was purified from calf thymus gland as reported previously by B. D. Halligan et al., J. Biol. Chem., 260, 2475 (1985).
Plasmid YEpG was also purified by the alkali lysis method followed by phenol deproteination and CsCl/ethidium isopycnic centrifugation as described by T. Maniatis et al., Molecular Cloning, A Laboratory Manual, Cold Spring Harbor Labs, N.Y. (1982) at pages 149-185. The end-labeling of the plasmid was accomplished as previously described by L. F. Liu et al., J. Biol. Chem., 258, 15365 (1983). The cleavage assays were performed as previously reported by A. Y. Chen et al., Cancer Res., 53, 1332 (1993). Human topoisomerase I was isolated as a recombinant fusion protein using a T7 expression system.

Row | Compound | Topo I-mediated DNA cleavage (REC, Relative Effective Concentration)
3 | c1ccc2[nH]c(-c3ccc4[nH]c(-c5ccc6[nH]cnc6c5)nc4c3)nc2c1 [Compound 10, 2-[2'-(Benzimidazol-5"-yl)benzimidazol-5'-yl]benzimidazole] | 1.1
4 | c1ccc(-c2ccc3[nH]c(-c4ccc5[nH]c(-c6ccc7[nH]cnc7c6)nc5c4)nc3c2)nc1 [Compound 14, 5-(2-Pyridyl)-2-[2'-(benzimidazol-5"-yl)benzimidazol-5'-yl]benzimidazole] | 3.3
5 | c1cncc(-c2ccc3[nH]c(-c4ccc5[nH]c(-c6ccc7[nH]cnc7c6)nc5c4)nc3c2)c1 [Compound 15, 5-(3-Pyridyl)-2-[2'-(benzimidazol-5"-yl)benzimidazol-5'-yl]benzimidazole] | 2
6 | c1cc(-c2ccc3[nH]c(-c4ccc5[nH]c(-c6ccc7[nH]cnc7c6)nc5c4)nc3c2)ccn1 [Compound 16, 5-(4-Pyridyl)-2-[2'-(benzimidazol-5"-yl)benzimidazol-5'-yl]benzimidazole] | 2
7 | N#Cc1ccc2[nH]c(-c3ccc4[nH]cnc4c3)nc2c1 [Compound 19, 5-Cyano-2-(benzimidazol-5'-yl)benzimidazole] | 1000
8 | Clc1ccc(-c2ccc3[nH]c(-c4ccc5[nH]c(-c6ccc7[nH]cnc7c6)nc5c4)nc3c2)cc1 [JSKIV-47, 5-(p-Chlorophenyl)-2-[2'-(benzimidazol-5"-yl)benzimidazol-5'-yl]-benzimidazole] | 10
9 | Clc1ccc2[nH]c(-c3ccc4[nH]c(-c5ccc6[nH]cnc6c5)nc4c3)nc2c1 [JSKIV-68, 5-Chloro-2-[2'-(benzimidazol-5"-yl)benzimidazol-5'-yl]-benzimidazole] | 1

Target: T3, Aspergillus topoisomerase I (Aspergillus nidulans, UniProt Q5BGS7)
T3 construct: about 105 kDa by phosphate transfer
T3 sequence (Q5BGS7 1-871): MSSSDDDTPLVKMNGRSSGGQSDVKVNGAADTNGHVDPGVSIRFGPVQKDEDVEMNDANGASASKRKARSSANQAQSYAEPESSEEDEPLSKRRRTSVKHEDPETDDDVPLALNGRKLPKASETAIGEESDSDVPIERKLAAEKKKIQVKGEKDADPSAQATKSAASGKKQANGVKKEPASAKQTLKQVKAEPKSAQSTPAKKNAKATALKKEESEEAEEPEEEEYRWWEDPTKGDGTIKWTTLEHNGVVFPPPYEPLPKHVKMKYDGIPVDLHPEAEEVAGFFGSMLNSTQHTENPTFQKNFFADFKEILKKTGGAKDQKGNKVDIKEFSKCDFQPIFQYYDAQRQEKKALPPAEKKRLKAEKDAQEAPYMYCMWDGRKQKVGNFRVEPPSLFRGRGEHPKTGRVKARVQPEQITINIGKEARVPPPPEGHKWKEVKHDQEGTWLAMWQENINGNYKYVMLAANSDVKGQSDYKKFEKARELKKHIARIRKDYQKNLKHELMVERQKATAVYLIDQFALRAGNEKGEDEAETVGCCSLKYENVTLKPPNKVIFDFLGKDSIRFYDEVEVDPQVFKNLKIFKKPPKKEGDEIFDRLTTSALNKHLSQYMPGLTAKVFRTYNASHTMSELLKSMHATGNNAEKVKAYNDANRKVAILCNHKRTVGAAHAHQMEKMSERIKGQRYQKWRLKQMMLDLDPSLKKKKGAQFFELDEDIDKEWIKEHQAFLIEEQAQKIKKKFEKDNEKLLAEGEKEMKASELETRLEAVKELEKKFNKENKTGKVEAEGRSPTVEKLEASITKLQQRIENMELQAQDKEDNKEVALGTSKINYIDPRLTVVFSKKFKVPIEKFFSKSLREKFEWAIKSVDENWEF
Assay: Topoisomerase I cleavage assay, Aspergillus enzyme
Type: biochemical
Conditions: DNA cleavage assay
Protocol: Two liters of YG medium (0.5% yeast extract and 2% glucose) were inoculated with approximately 5×10^8 conidia/ml. After 16 hours of growth at 37° C., the mycelia were collected, washed with Buffer I (50 mM Tris-HCl, pH 7.7, 1 mM EDTA, 1 mM EGTA, 10% glycerol, 1 mM phenylmethylsulfonyl fluoride and 1 mM 2-mercaptoethanol), and quickly chilled in liquid nitrogen. The frozen mycelia (approximately 20 grams) were ground to powder and resuspended in 300 ml of Buffer I. The lysate was centrifuged at 10K rpm in a Sorval HB3 Rotor for 15 minutes to remove cell debris. The supernatant was made 6% in polyethylene glycol (v/v) and 1M NaCl. After one hour on ice with gentle stirring, the solution was centrifuged at 14K rpm in a Sorvall Rotor for 30 minutes to remove nucleic acids.
Subsequent steps in purification were the same as described previously for purification of recombinant human DNA topoisomerase I (B. Gatto et al., Cancer Res., 56, 2795 (1996)). Briefly, the supernatant was chromatographed directly onto a hydroxyapatite Bio-gel HTP (BioRad Laboratories, Richmond, Calif.) column. Fractions containing relaxation activity were pooled, diluted and then loaded onto a BioRex70 column (BioRad Laboratories, Richmond, Calif.). The column was developed with a linear gradient from 0.2 to 1M KCl. The peak fractions were pooled and dialyzed overnight at 4° C. against 30 mM potassium phosphate, 50% glycerol (v/v), 0.5 mM EDTA, and 1 mM DTT. Recombinant human topoisomerase I was purified from Escherichia coli BL21 (DE3) harboring PET1B as described previously (Gatto et al., Cancer Res., 56, 2795 (1996)).
DNA topoisomerase I cleavage assays were performed as described by Y.-H. Hsiang et al., J. Biol. Chem., 260, 14873 (1985). YEpG DNA was linearized with BamHI and then 3 '-end-labeled with Klenow polymerase and α[-^32 P]dCTP. Following phenol extraction and ethanol precipitation, the labeled DNA was resuspended in 10 mM Tris, pH 8.0, and 1 mM EDTA. The DNA cleavage assay was done in a reaction mixture (20 μl) containing 40 mM Tris-HCl, pH 7.8, 100 mM KCl, 10 mM MgCl2, 0.5 mM dithiothreitol, 0.5 mM EDTA, 30 μg/ml bovine serum albumin, 20 ng of labeled YEpG DNA, and […] of Aspergillus or human topoisomerase I diluted to various extents. Following incubation at 23° C. for 15 minutes, the reactions were terminated by the addition of SDS (final concentration 1%) and proteinase K (final concentration 200 μg/ml). Proteinase K treatment continued at 37° C. for another 1 hour. The terminated reactions were either alkali-denatured and then loaded (alkaline loading) or loaded directedly in neutral loading buffer (neutral loading) onto a 1% agarose gel in neutral TPE electrophoresis solution. Gel drying and autoradiography were performed as described by Hsiang et al., cited above.

Row | Compound | inhibition (poisoning) of Aspergillus topoisomerase I, in words
10 | N=C(N)c1ccc(N=NNc2ccc(C(=N)N)cc2)cc1 [Berenil, berenil] | inactive
11 | COc1ccc(-c2nc3ccc(C(F)(F)F)cc3[nH]2)cc1 [QS/II/50] | None of the mono-benzimidazoles, including QS/II/50, QS/II/51, QS/II/59A, an QS/II/9, exhibited any inhibitory effect
12 | CCOc1ccc(-c2nc3ccc(-c4nc5cc(CCCN(C)C)ccc5[nH]4)cc3[nH]2)cc1 [compound 2 wherein n is 3] | selective sensitivity
13 | COc1cc2cc3c4cc(OC)c(OC)cc4cc[n+]3c(C)c2cc1OC [coralyne] | completely resistant; also recorded: did not inhibit Aspergillus topoisomerase I to any significant extent
